{"source": "patent US20040120926A1", "about": "“Reactive oxygen metabolite inhibitors for use in compositions and methods of treatment” (priority 1999, published 2004)", "key": {"[1]": {"system": "T-cells (CD3ε+) and NK-cells (CD56+)", "assay": "IL-2-induced CD69 expression on T-cells and NK-cells incubated with or without MO (flow cytometry)", "assay_type": "cell-based, human", "description": "FIG. 1 is a graph showing the protection of CD3ε+ T-cells against oxidative inhibition by DPI. Lymphocytes and MO were recovered from peripheral blood as described herein. A mixture of MO and lymphocytes was treated with culture medium (control, open circles) or IL-2 (100 U/ml; filled circles) for 16 hrs. After incubation, lymphocytes were labeled with antibodies to CD3ε and CD69. […] Similar results were obtained when CD69 expression was examined in CD56+. NK-cells incubated with MO: 29.5% (control) or 79.0% (DPI 1000 nM) of NK-cells acquired the CD69 antigen in response to IL-2. […] The results are representative of three similar experiments.\n(§1) Peripheral venous blood was obtained as freshly prepared leukopacks from healthy blood donors at the Blood Centre, Sahlgren's Hospital, Goteborg, Sweden, to study the activation characteristics of cytotoxic lymphocytes in the presence and absence of MO, and ROM inhibitors. The blood (65 ml) was mixed with 92.5 ml Iscove's medium, 35 ml 6% Dextran (Kabi Pharmacia, Stockholm, Sweden) and 7.5 ml acid citrate dextrose (ACD) (Baxter, Deerfield, Ill.). After incubation for 15 minutes at room temperature, the supernatant was carefully layered onto Ficoll-Hypaque (Lymphoprep, Myegaard, Norway). Mononuclear cells (MNC) were collected at the interface after centrifugation at 380 g for 15 minutes at room temperature, washed twice in PBS and resuspended in Iscove's medium supplemented with 10% human AB+serum. During all further separation of cells, the cell suspensions were kept in siliconized test tubes (Vacuette, Greiner, Stockholm).\nThe MNC were further separated into lymphocyte and monocyte (MO) populations using the counter-current centrifugal elutriation (CCE) technique originally described by Yasaka and co-workers (Yasaka, T. et al., J. Immunol., 127:1515) with modifications as described in Hansson, M., et al. (J. Immunol., 156: 42 (1996); hereby incorporated by reference). Briefly, the MNC were resuspended in elutration buffer containing 0.05% BSA and 0.015% EDTA in buffered NaCl and fed into a Beckman J2-21 ultracentrifuge with a JE-6B rotor at 2100 rpm. A fraction with >90% MO was obtained at a flow rate of 18 ml/min. A lymphocyte fraction enriched for NK-cells (CD3^−/56^+ phenotype) and T-cells (CD3^+/56^−) was recovered at flow rates of 14-15 ml/min. This fraction contained <3% MO and consisted of CD3,^−/56^+ NK-cells (45-50%), CD3,^+/56^− T-cells (35-40%), CD3,^−/56^− cells (5-10%), and CD3,^+/56^+ cells (1-5%), as judged by flow cytometry. In some experiments, dynabeads (Dynal A/S, Oslo, Norway) coated with anti-CD56 were used to obtain purified lymphocyte preparations of T-cells, as described in detail by Hansson, M., et al., incorporated above.\nFlow cytometry was used in the experiments described below to identify the various sub-populations of T-cells. Flow cytometry permits an investigator to examine a population of cells using a number of labeled probes to differentiate sub-populations within the larger whole. In these experiments, the CD3 marker was used to identify the sub-population of T-cells and the CD4 and CD8 markers were used to further identify the sub-population of T-cells into T helper cells and CTLs. The effects of MO exposure in the presence and absence of histamine and T-cell activation compounds were determined using the CD69 T-cell activation marker. The expression of the different markers was estimated in a lymphocyte gate using flow cytometry (as described in Hellstrand, K., et al. Cell. Immunol. 138: 44-54 (1991), and hereby incorporated by reference).\nThe following protocol was used in experiments reporting the detection of surface antigens of cell populations. One million cells were incubated with appropriate fluorescein isothiocynate (FITC) and phycoerythrin (PE) conjugated monoclonal antibodies (Becton & Dickinson, Stockholm, Sweden; 1:1/10^6 cells), on ice for 30 minutes. […]"}, "mouse sarcoma (MCG)": {"system": "mouse sarcoma (MCG)", "assay": "In vivo tumor growth of subcutaneously inoculated mouse sarcoma (MCG)", "design": "species or system C57/b16 mice", "details": "for Mean Tumor Weight: control .941", "description": "The following in vivo study was conducted to determine DPI's effectiveness in inhibiting tumor growth rate. C57/b16 mice were subcutaneously inoculated with mouse sarcoma (MCG) on Day 1. The mice were then subcutaneously injected once daily for Days 1-9 with either NaCl or DPI. There were 5 different treatment groups, including the control group that received NaCl. The other four treatment groups were administered DPI subcutaneously at dosages of either 1 mg/kg, 10 mg/kg, 50 mg/kg, or 100 mg/kg. On Day 9, the mice were killed and tumor size and weight was measured. The resulting tumor weights are provided below in Table 2."}, "T-cells and NK-cells": {"system": "T-cells and NK-cells", "assay": "MO-induced apoptosis in T-cells and NK-cells (flow cytometry, reduced forward and increased right angle scatter)", "assay_type": "cell-based, human", "details": "lymphocytes with MO, DPI 100 nM, Fas:Fc-IgG 20 μg/ml"}, "[2]": {"system": "elutriated MO (monocytes/macrophages)", "assay": "Chemiluminescence assay of spontaneous isoluminol-enhanced extracellular superoxide anion generation in elutriated MO", "assay_type": "cell-based, human", "description": "as §1, with “Stockholm). […]” for “Stockholm).”\nTo assess whether DPI and histamine inhibited the spontaneous release of ROM from MO, a chemiluminescence assay was performed that specifically quantified extracellular ROM (superoxide anion). The spontaneous isoluminol-enhanced extracellular generation of superoxide anion in elutriated MO was measured using the assay described in Hellstrand, K., et al., J Immunol, 153:4940-4947 (1994) and in Lundqvist & Dahlgren, Free Radic. […]"}, "[3]": {"assay": "Scavenging of superoxide anion", "details": "200 U/ml"}}, "data": [{"molecule": "c1ccc([I+]c2ccccc2)cc1", "note": "[DPI, diphenyliodonium]", "values": [{"measurement": "NK-cells that acquired the CD69 antigen in response to IL-2", "setting": "[1]; CD56+ NK-cells incubated with MO, DPI 1000 nM, IL-2 100 U/ml, 16 hrs, control 29.5%", "result": 79.0, "unit": "%"}, {"measurement": "MO-induced inhibition of T-cells and NK-cells (IL-2-induced CD69)", "setting": "[1]; DPI, lymphocytes with MO, IL-2 100 U/ml, 16 hours", "result": "significantly reversed"}, {"measurement": "IL-2-induced expression of CD69 in T-cells or NK-cells", "setting": "[1]; incubated in the absence of MO", "result": "did not increase"}, {"measurement": "viable CD56+/69+ (gated events)", "setting": "[1]; lymphocytes with MO, DPI 100 nM, Fas:Fc-IgG 20 μg/ml, control 36", "result": 1248, "unit": "gated events"}, {"measurement": "viable CD3+/CD69+ (gated events)", "setting": "[1]; lymphocytes with MO, DPI 100 nM, Fas:Fc-IgG 20 μg/ml, control 89", "result": 701, "unit": "gated events"}, {"measurement": "Mean Tumor Weight", "setting": "mouse sarcoma (MCG); 1 mg/kg s.c. once daily Days 1-9, Day 9", "result": 1.107, "unit": "gms"}, {"measurement": "Mean Tumor Weight", "setting": "mouse sarcoma (MCG); 10 mg/kg s.c. once daily Days 1-9, Day 9", "result": ".643 gms"}, {"measurement": "Mean Tumor Weight", "setting": "mouse sarcoma (MCG); 50 mg/kg s.c. once daily Days 1-9, Day 9", "result": ".638 gms"}, {"measurement": "Mean Tumor Weight", "setting": "mouse sarcoma (MCG); 100 mg/kg s.c. once daily Days 1-9, Day 9", "result": ".473 gms"}, {"measurement": "effect on tumor growth rate in vivo", "setting": "mouse sarcoma (MCG); 1, 10, 50, 100 mg/kg s.c. once daily Days 1-9", "result": "dose dependent inhibiting effect"}, {"measurement": "apoptotic CD3+/CD69+(%)", "setting": "T-cells and NK-cells; control 52", "result": 7, "unit": "%"}, {"measurement": "apoptotic CD56+/CD69+(%)", "setting": "T-cells and NK-cells; control 71", "result": 13, "unit": "%"}, {"measurement": "reduction of released extracellular superoxide anion", "setting": "[2]; DPI 10 nM, MO from three blood donors", "result": "more than four fold reduction"}]}, {"molecule": "NCCc1c[nH]cn1", "note": "[histamine, reference compound]", "values": [{"measurement": "inhibition of the concentration of extracellular superoxide anion", "setting": "[2]; histamine at 50 μM", "result": "more than five-fold"}]}, {"molecule": "Catalase [reference compound]", "values": [{"measurement": "MO-induced inhibition of IL-2-induced CD69 expression in T-cells and NK-cells", "setting": "[1]; catalase at concentrations exceeding 50 U/ml", "result": "significantly reversed"}]}, {"molecule": "superoxide dismutase [reference compound]", "values": [{"measurement": "MO-induced inhibition of IL-2-induced CD69 expression in T-cells and NK-cells", "setting": "[1]; superoxide dismutase 200 U/ml", "result": "ineffective"}, {"measurement": "superoxide anion scavenged", "setting": "[3]", "result": "> 90", "unit": "%"}]}]}
